Biological target: T1, Recombinant human KIF18A (1-467 His-tagged) protein (Homo sapiens, UniProt Q8NI77)
T1 construct: Recombinant human KIF18A (1-467 His-tagged) protein; His; made in house
Experiment: KIF18A Enzyme Assay (microtubule-stimulated ATPase activity, ADP-Glo)
Type: biochemical
Details: KIF18A protein 30 nM, ATP 75 μM (at Km), 30 μg/mL pig microtubules, ADP-Glo luminescence
Excerpt: For compounds in Table A, the following assay conditions were employed:
KIF18A Enzyme Assay: Microtubule-stimulated ATPase activity assay is used to measure KIF18A enzyme activity after treatment with compound. Compounds were 2-fold serially diluted in DMSO (Sigma Inc) over 22-point concentration range. Recombinant human KIF18A (1-467 His-tagged) protein was expressed using a baculovirus system and purified by affinity chromatography by Amgen Inc. Concentrations of KIF18A protein, microtubules (MT), and ATP in the reaction were optimized for standardized homogenous enzyme assay using ADP-Glom Kinase/ATPase Assay Kit (Promega Inc). The assay measures ADP formed from the ATPase reaction. […] Read luminescence using EnVision microplate reader with ultra-luminescence module (Perkin Elmer Inc). Concentration-response curve-fitting and IC50 determination was performed using Genedata Screener Software (Standard 15.0.1, Genedata Inc) with a four-parameter logistic regression fit model.

T1 sequence (Q8NI77 1-467): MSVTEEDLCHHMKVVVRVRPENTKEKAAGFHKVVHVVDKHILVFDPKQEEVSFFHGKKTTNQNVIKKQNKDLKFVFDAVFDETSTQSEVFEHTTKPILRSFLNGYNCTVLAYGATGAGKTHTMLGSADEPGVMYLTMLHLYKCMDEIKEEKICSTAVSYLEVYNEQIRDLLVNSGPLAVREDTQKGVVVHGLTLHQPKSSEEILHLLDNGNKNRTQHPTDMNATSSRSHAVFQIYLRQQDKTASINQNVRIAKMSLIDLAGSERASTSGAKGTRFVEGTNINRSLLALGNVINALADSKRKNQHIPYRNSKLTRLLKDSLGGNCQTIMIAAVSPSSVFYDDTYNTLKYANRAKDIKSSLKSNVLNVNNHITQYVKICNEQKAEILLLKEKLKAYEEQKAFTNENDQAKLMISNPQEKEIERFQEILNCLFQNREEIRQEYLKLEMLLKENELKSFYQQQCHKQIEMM
T1 sequence (P02550 whole entry partner): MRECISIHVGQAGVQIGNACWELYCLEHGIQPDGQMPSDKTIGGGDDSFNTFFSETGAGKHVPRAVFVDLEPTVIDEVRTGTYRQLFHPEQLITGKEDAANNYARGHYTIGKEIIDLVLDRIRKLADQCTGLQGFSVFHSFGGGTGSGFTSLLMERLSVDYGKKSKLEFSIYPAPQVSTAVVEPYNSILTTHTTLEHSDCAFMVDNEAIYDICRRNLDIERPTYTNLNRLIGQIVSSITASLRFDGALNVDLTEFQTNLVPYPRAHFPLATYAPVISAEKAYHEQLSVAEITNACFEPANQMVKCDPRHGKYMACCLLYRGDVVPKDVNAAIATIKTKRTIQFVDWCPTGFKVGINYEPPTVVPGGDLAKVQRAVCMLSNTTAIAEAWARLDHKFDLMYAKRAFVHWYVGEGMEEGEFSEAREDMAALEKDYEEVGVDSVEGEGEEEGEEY
T1 sequence (P02554 whole entry partner): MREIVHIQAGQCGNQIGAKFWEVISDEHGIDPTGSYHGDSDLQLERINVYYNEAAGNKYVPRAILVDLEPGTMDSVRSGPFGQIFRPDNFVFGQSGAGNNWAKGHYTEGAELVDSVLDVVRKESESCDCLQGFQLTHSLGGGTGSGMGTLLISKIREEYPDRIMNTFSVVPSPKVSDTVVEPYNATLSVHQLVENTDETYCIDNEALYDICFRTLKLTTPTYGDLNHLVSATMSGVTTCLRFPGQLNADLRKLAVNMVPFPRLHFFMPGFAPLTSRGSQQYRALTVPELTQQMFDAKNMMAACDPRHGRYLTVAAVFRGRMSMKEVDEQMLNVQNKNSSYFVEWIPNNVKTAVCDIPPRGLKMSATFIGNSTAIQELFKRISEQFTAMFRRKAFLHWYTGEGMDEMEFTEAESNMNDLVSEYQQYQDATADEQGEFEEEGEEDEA

Row | SMILES | IC50
1 | CC(C)c1ccc(-c2nc(NC(C)(C)CO)cnc2C(=O)Nc2cccc(S(=O)(=O)NC(C)(C)C)c2)cc1 [Example 104-4, N-(3-(N-(tert-butyl)sulfamoyl)phenyl)-5-((1-hydroxy-2-methylpropan-2-yl)amino)-3-(4-isopropylphenyl)pyrazine-2-carboxamide] | 141 nM
2 | CC(C)(CO)Nc1cnc(C(=O)Nc2cccc(S(=O)(=O)C3CCCC3)c2)c(N2CCC3(CC2)CC3)n1 [Example 103, N-(3-(Cyclopentylsulfonyl)phenyl)-5-((1-hydroxy-2-methylpropan-2-yl)amino)-3-(6-azaspiro[2.5]octan-6-yl)pyrazine-2-carboxamide] | 77 nM
3 | CC1(C)CCN(c2nc(NC(C)(C)CO)cnc2C(=O)Nc2cccc(S(=O)(=O)NC(C)(C)C)c2)CC1 [Example 100-5, N-(3-(N-(tert-butyl)sulfamoyl)phenyl)-3-(4,4-dimethylpiperidin-1-yl)-5-((1-hydroxy-2-methylpropan-2-yl)amino)pyrazine-2-carboxamide] | 190 nM
4 | O=C(Nc1cccc(S(=O)(=O)C2CCCC2)c1)c1ncc(NC2(CO)CC2)nc1N1CCC2(CC1)CC2 [Example 103-2, N-(3-(cyclopentylsulfonyl)phenyl)-5-((1-(hydroxymethyl)cyclopropyl)amino)-3-(6-azaspiro[2.5]octan-6-yl)pyrazine-2-carboxamide] | 143 nM
5 | CC(C)(C)NS(=O)(=O)c1cccc(NC(=O)c2ncc(NC(C)(C)CO)nc2N2CCC3(CC2)CC3)c1 [Example 100, N-(3-(N-(tert-Butyl)sulfamoyl)phenyl)-5-((1-hydroxy-2-methylpropan-2-yl)amino)-3-(6-azaspiro[2.5]octan-6-yl)pyrazine-2-carboxamide] | 82 nM
6 | CC(C)(O)CNc1cnc(C(=O)Nc2cccc(S(=O)(=O)N3CCCCC3)c2)c(N2CCC3(CC2)CC3)n1 [Example 103-4, 5-((2-hydroxy-2-methylpropyl)amino)-N-(3-(piperidin-1-ylsulfonyl)phenyl)-3-(6-azaspiro[2.5]octan-6-yl)pyrazine-2-carboxamide] | 406 nM
7 | CCc1ccc(-c2nc(NC(C)(C)CO)cnc2C(=O)Nc2cccc(S(=O)(=O)NC(C)(C)C)c2)cc1 [Example 104-3, N-(3-(N-(tert-butyl)sulfamoyl)phenyl)-3-(4-ethylphenyl)-5-((1-hydroxy-2-methylpropan-2-yl)amino)pyrazine-2-carboxamide] | 146 nM
8 | CC(C)(C)NS(=O)(=O)c1cccc(NC(=O)c2ncc([C@@](C)(O)C(F)(F)F)nc2N2CCC3(CC2)CC3)c1 (single isomer, unassigned) [Example 105-1] | 174 nM
9 | CC(C)(CO)Nc1cnc(C(=O)Nc2cccc(N3CCOCC3)c2)c(N2CCC3(CC2)CC3)n1 [Example 101-7, 5-((1-hydroxy-2-methylpropan-2-yl)amino)-N-(3-morpholinophenyl)-3-(6-azaspiro[2.5]octan-6-yl)pyrazine-2-carboxamide] | 768 nM
10 | CC(C)(C)NS(=O)(=O)c1cccc(NC(=O)c2ncc(NC(C)(C)CO)nc2N2CCC3(CC2)CC(F)(F)C3)c1 [Example 100-16, N-(3-(N-(tert-butyl)sulfamoyl)phenyl)-3-(2,2-difluoro-7-azaspiro[3.5]nonan-7-yl)-5-((1-hydroxy-2-methylpropan-2-yl)amino)pyrazine-2-carboxamide] | 215 nM
11 | CC1CCN(c2nc(NC(C)(C)CO)cnc2C(=O)Nc2cccc(S(=O)(=O)NC(C)(C)C)c2)CC1 [Example 100-1, N-(3-(N-(tert-butyl)sulfamoyl)phenyl)-5-((1-hydroxy-2-methylpropan-2-yl)amino)-3-(4-methylpiperidin-1-yl)pyrazine-2-carboxamide] | 177 nM
12 | CC(C)(C)NS(=O)(=O)c1cccc(NC(=O)c2ncc(NC(C)(C)CO)nc2N2CCC3(CCOCC3)CC2)c1 [Example 100-14, N-(3-(N-(tert-butyl)sulfamoyl)phenyl)-5-((1-hydroxy-2-methylpropan-2-yl)amino)-3-(3-oxa-9-azaspiro[5.5]undecan-9-yl)pyrazine-2-carboxamide] | 1380 nM
13 | CCC(C)C1CCN(c2nc(NC(C)(C)CO)cnc2C(=O)Nc2cccc(S(=O)(=O)NC(C)(C)C)c2)CC1 (stereo not shown) [Example 100-8, 3-(4-(sec-butyl)piperidin-1-yl)-N-(3-(N-(tert-butyl)sulfamoyl)phenyl)-5-((1-hydroxy-2-methylpropan-2-yl)amino)pyrazine-2-carboxamide] | 163 nM
14 | CC(C)(C)NS(=O)(=O)c1cccc(NC(=O)c2ncc(NC(C)(C)CO)nc2N2CCC(C(F)(F)F)CC2)c1 [Example 100-3, N-(3-(N-(tert-butyl)sulfamoyl)phenyl)-5-((1-hydroxy-2-methylpropan-2-yl)amino)-3-(4-(trifluoromethyl)piperidin-1-yl)pyrazine-2-carboxamide] | 455 nM
15 | CC(C)(C)NS(=O)(=O)c1cccc(NC(=O)c2ncc(NC(C)(CO)CO)nc2N2CCC3(CC2)CC3)c1 [Example 106, N-(3-(N-(tert-butyl)sulfamoyl)phenyl)-5-((1,3-dihydroxy-2-methylpropan-2-yl)amino)-3-(6-azaspiro[2.5]octan-6-yl)pyrazine-2-carboxamide] | 103 nM
16 | CC(C)(CO)Nc1cnc(C(=O)Nc2cccc(S(=O)(=O)C(C)(C)C(F)(F)F)c2)c(N2CCC3(CC2)CC3)n1 [Example 101-1, 5-((1-hydroxy-2-methylpropan-2-yl)amino)-3-(6-azaspiro[2.5]octan-6-yl)-N-(3-((1,1,1-trifluoro-2-methylpropan-2-yl)sulfonyl)phenyl)pyrazine-2-carboxamide] | 108 nM
17 | CC(C)(C)NS(=O)(=O)c1cccc(NC(=O)c2ncc(NC(C)(C)CO)nc2-c2ccc(F)cc2)c1 [Example 104-1, N-(3-(N-(tert-butyl)sulfamoyl)phenyl)-3-(4-fluorophenyl)-5-((1-hydroxy-2-methylpropan-2-yl)amino)pyrazine-2-carboxamide] | 418 nM
18 | CC(C)(CO)Nc1cnc(C(=O)Nc2cccc(S(=O)(=O)[C@H]3CCC(F)(F)C3)c2)c(N2CCC3(CC2)CC3)n1 (single isomer, unassigned) [Example 102-1] | 67 nM
19 | CC(C)(C)NS(=O)(=O)c1cccc(NC(=O)c2ncc(NC(C)(C)CO)nc2N2CCC(F)(F)CC2)c1 [Example 100-2, N-(3-(N-(tert-butyl)sulfamoyl)phenyl)-3-(4,4-difluoropiperidin-1-yl)-5-((1-hydroxy-2-methylpropan-2-yl)amino)pyrazine-2-carboxamide] | 342 nM
20 | CC(C)(C)NS(=O)(=O)c1cccc(NC(=O)c2ncc(NC(C)(C)CO)nc2N2CCC(C(C)(C)C)CC2)c1 [Example 100-7, 3-(4-(tert-butyl)piperidin-1-yl)-N-(3-(N-(tert-butyl)sulfamoyl)phenyl)-5-((1-hydroxy-2-methylpropan-2-yl)amino)pyrazine-2-carboxamide] | 788 nM
21 | CC(C)(C)NS(=O)(=O)c1cccc(NC(=O)c2ncc(NC(C)(C)CO)nc2N2CC3(CCC3)C2)c1 [Example 100-12, N-(3-(N-(tert-butyl)sulfamoyl)phenyl)-5-((1-hydroxy-2-methylpropan-2-yl)amino)-3-(2-azaspiro[3.3]heptan-2-yl)pyrazine-2-carboxamide] | 931 nM
22 | CC(C)(CO)Nc1cnc(C(=O)Nc2cccc(N3CCS(=O)(=O)CC3)c2)c(N2CCC3(CC2)CC3)n1 [Example 101-6, N-(3-(1,1-dioxidothiomorpholino)phenyl)-5-((1-hydroxy-2-methylpropan-2-yl)amino)-3-(6-azaspiro[2.5]octan-6-yl)pyrazine-2-carboxamide] | 545 nM
23 | CC(C)(CO)Nc1cnc(C(=O)Nc2cccc(S(=O)(=O)[C@@H]3CCC(F)(F)C3)c2)c(N2CCC3(CC2)CC3)n1 (single isomer, unassigned) [Example 102-2] | 111 nM
24 | CC(C)(CO)Nc1cnc(C(=O)Nc2cccc(S(=O)(=O)C(C)(C)C)c2)c(N2CCC3(CC2)CC3)n1 [Example 101-2, N-(3-(tert-butylsulfonyl)phenyl)-5-((1-hydroxy-2-methylpropan-2-yl)amino)-3-(6-azaspiro[2.5]octan-6-yl)pyrazine-2-carboxamide] | 218 nM
25 | CC(C)(C)NS(=O)(=O)c1cccc(NC(=O)c2ncc([C@](C)(O)C(F)(F)F)nc2N2CCC3(CC2)CC3)c1 (single isomer, unassigned) [Example 105-2] | 356 nM
26 | CC(C)(C)NS(=O)(=O)c1cccc(NC(=O)c2ncc(NC(C)(C)CO)nc2N2CC3(CCCCC3)C2)c1 [Example 100-13, N-(3-(N-(tert-butyl)sulfamoyl)phenyl)-5-((1-hydroxy-2-methylpropan-2-yl)amino)-3-(2-azaspiro[3.5]nonan-2-yl)pyrazine-2-carboxamide] | 410 nM
27 | CC(C)C1CCN(c2nc(NC(C)(C)CO)cnc2C(=O)Nc2cccc(S(=O)(=O)NC(C)(C)C)c2)CC1 [Example 100-6, N-(3-(N-(tert-butyl)sulfamoyl)phenyl)-5-((1-hydroxy-2-methylpropan-2-yl)amino)-3-(4-isopropylpiperidin-1-yl)pyrazine-2-carboxamide] | 319 nM
28 | CC(C)(C)NS(=O)(=O)c1cccc(NC(=O)c2ncc(NC(C)(C)CO)nc2-c2ccc(C(F)(F)F)cc2)c1 [Example 104-2, N-(3-(N-(tert-butyl)sulfamoyl)phenyl)-5-((1-hydroxy-2-methylpropan-2-yl)amino)-3-(4-(trifluoromethyl)phenyl)pyrazine-2-carboxamide] | 168 nM

Source: patent US12435058B2, “KIF18A inhibitors” (AMGEN INC., priority 2019, dated 2025)
